Test results: US5925528A, “Murine cell lines which over produce acidic fibroblast growth factor (aFGF) and method of using same” (Ohio State University Research Foundation, priority 1997, dated 1999)
Entries after “also recorded” stand apart in the source; their conditions may differ.

Assays:
[1] = test system: sense transfectants (Tr31-5-1, Tr33-1-2, Tr34-4-1 and Tr34-1-1); assay: Mitogenic response ([3H]thymidine) of sense transfectants compared with parental NIH/3T3 cells; format: cell-based, mouse
Procedure: (§1) FIG. 12 is a graph showing the mitogenic effects of different growth factors to various transfected cell lines. Cells were grown to confluence, changed to Dulbecco's modified Eagle medium containing 0.5% calf serum and grown for two more days. Different growth factors or calf serum was then added to the medium to stimulate cells to grow. [^3 H]thymidine was added 18 hours after addition of the mitogens and cells were incubated for another 6 hours. Bovine aFGF (b-aFGF) represents the truncated forms while human aFGF purified from Tr31-5-1 (rh-aFGF) represents the full-length protein. Cell lines, Tr31-5-1, 33-1-2, 34-1-1, and 34-4-1 are NIH/3T3 derivatives containing the aFGF cDNA construct in the positive orientation; whereas Tr31-11-1 contains aFGF cDNA in the anti-sense orientation.
(§2) Cells transfected with the EDNA coding for the full-length human aFGF were compared with the parental NIH/3T3 cells by determining their responses to various mitogens. […] Therefore, the lack of mitogenic response of Tr31-5-1 and Tr33-1-2 to rh-aFGF is not likely due to the trivial explanation of a defective mitogen. Thus, Tr31-5-1 and Tr33-1-2 may have lost some component of the pathway and these cell lines provide a unique means for elucidating the components responsive to the full-length aFGF.

[2] = test system: newt KGFR; assay: Binding assay (Scatchard plot) using KPTr2-2 cells and 125I-aFGF; design: species or system newt (Notophthalamus viridescens); details: KPTr2-2 cells, read-out: Kd of newt KGFR toward human aFGF
From the text: (§3) Binding assays using KPTr2-2 and ^125 I-aFGF have been carried out. […] The Kd is slightly higher than the typical sub-nM range of mammalian KGFR. However, this may reflect the species difference since we used a human ligand for the newt receptor.

[3] = test system: Tr31-5-1 cells; assay: Mitogenic response ([3H]thymidine) of Tr31-5-1 cells; format: cell-based, mouse; details: listed as full-length aFGF
Procedure: as §1, §2

[4] = test system: Tr33-1-2 cells; assay: Mitogenic response ([3H]thymidine) of Tr33-1-2 cells; format: cell-based, mouse; details: listed as full-length aFGF
Procedure: as §1, §2

[5] = test system: NIH/3T3 cells; assay: Mitogenic response ([3H]thymidine) of NIH/3T3 cells; format: cell-based, mouse
Procedure: as §1, §2

[6] = test system: Swiss/3T3 cells; assay: Mitogenic response ([3H]thymidine) of Swiss/3T3 cells; format: cell-based
[7] = test system: newt KGFR; assay: Competition assay using KPTr2-2 and 125I-aFGF; format: binding, newt (Notophthalamus viridescens); details: KPTr2-2 cells, compared with aFGF
From the text: as §3

[8] = test system: newt KGFR; assay: Crosslinking of 125I-aFGF to CHO-K1 cells over-expressing newt KGFR (KPTr2-2), competition with excess cold ligand; format: binding, newt (Notophthalamus viridescens); details: 500-fold molar excess of cold ligand, KPTr2-2 cells
Procedure: CHO cells transfected with pBJ5 vector (lane 1) or with newt KGFR expression vector (lanes 2-4) were crosslinked with ^125 I-aFGF using 0.3 mM disuccinimidyl suberate (DSS). Excess amounts (500-fold) of aFGF (lane 3) or KGF (lane 4) were used to compete with ^125 I-aFGF. Crosslinked products were analyzed on a 7.5% SDS-polyacrylamide gel.
To characterize the newt FGFR EDNA functionally, the newt KGFR were expressed in CHO-K1 cells. The mammalian expression vector, pBJ5, which contains a chimeric promoter derived from HTLV-I and SV40, was used to express the newt KGFR and FGFR2 cDNA. […] The crosslinked product is absent in KPTr1-8, the CHO cells that were transfected with the pBJ5 vector alone. The crosslinked product thus appears to be specific. Similarly, a cell line over-expressing the human KGFR (T-1063-29-2 from S. A. Aaronson, NIH) was able to produce a somewhat smaller crosslinked product than the newt KGFR. Antibodies (both monoclonal and polyclonal) directed against a peptide from the carboxyl terminus of the newt FGFR2 are generated.

In the case of PDGF [reference compound], the “mitogenic response relative to parental NIH/3T3 cells” value ([1]; sense transfectants Tr31-5-1, Tr33-1-2, Tr34-4-1 and Tr34-1-1) is reported as “stronger mitogenic responses than NIH/3T3 cells”.

“human aFGF: human aFGF purified from Tr31-5-1 (rh-aFGF) represents the full-length protein” was tested, and the Kd [2] was 1.3 nM, the mitogenic response [3] was “failed to give any mitogenic responses; also recorded: do not respond” and the mitogenic response [4] was “failed to give any mitogenic responses; also recorded: do not respond”. The mitogenic response [5] was “responded to the mitogenic stimulation”, the mitogenic response [6] was “responded to the mitogenic stimulation” and the “mitogenic response relative to parental NIH/3T3 cells” value ([1]; sense transfectants with the exception of Tr33-1-2) was “respond less strongly than the parental NIH/3T3 cells”.

“human recombinant bFGF: human recombinant basic fibroblast growth factor” was tested, and the “competition with 125I-aFGF” value [7] was “does not compete as well as aFGF”.

B1: human recombinant KGF: human recombinant keratinocyte growth factor (protein, UniProt P21781 32-194, looked up)
Fibroblast growth factor 7: CNDMTPEQMATNVNCSSPERHTRSYDYMEGGDIRVRRLFCRTQWYLRIDKRGKVKGTQEMKNNYNIMEIRTVAVGIVAIKGVESEFYLAMNKEGKLYAKKECNEDCNFKELILENHYNTYASAKWTHNGGEMFVALNQKGIPVRGKKTKKEQKTAHFLPMAIT
With B1 the “competition of the 150 kDa crosslinked product” value [8] was “successfully competed off”.
